Source: US9290710B2, “Synergistic antimicrobial composition” (Dow Global Technologies LLC, priority 2009, dated 2016)

What was measured:
[1] = tested on: oil field isolated anaerobic consortium, mainly SRB; assay: Biocidal efficacy of THPS, NaOPP and THPS/NaOPP against anaerobic bacteria (99.999% reduction); assay type: cell-based, Sulfate Reducing Bacteria (SRB); conditions: alone or in THPS/NaOPP blend, 40° C., 24 hour, 10^7 CFU/mL
Method: Inside an anaerobic chamber (Bactron anaerobic chamber), a deaerated sterile salt solution (3.1183 g of NaCl, 1.3082 mg of NaHCO3, 47.70 mg of KCl, 72.00 mg of CaCl2, 54.49 mg of MgSO4, 172.28 mg of Na2SO4, 43.92 mg of Na2CO3 in 1 L water) was contaminated with an oil field isolated anaerobic consortium, mainly SRB, at final bacterial concentrations of 10^7 CFU/mL. […] After the mixtures were incubated at 40° C. for 24 hour, the viable bacteria were enumerated using serial dilution method. The biocidal efficacy was determined by minimum tested biocide concentration for 99.999% bacterial reduction in the aliquots.

[2] = tested on: Psedomonas aeruginosa ATCC 10145 and Staphylococcus aureus ATCC 6538; assay: Biocidal efficacy of THPS, NaOPP and THPS/NaOPP against aerobic bacteria (99.999% reduction); assay type: cell-based; conditions: alone or in THPS/NaOPP blend, PBS buffer (pH7), 37° C., 24 hour
Method: A PBS buffer (pH7) was contaminated with Psedomonas aeruginosa ATCC 10145 and Staphylococcus aureus ATCC 6538 at final bacterial concentration of −10^6 CFU/ml. […] After the mixtures were incubated at 37° C. for 24 hour, the viable bacteria were enumerated using serial dilution method. The biocidal efficacy was determined by minimum tested biocide concentration for 99.999% bacterial reduction in the aliquots.

[3] = tested on: oil field isolated SRB consortium; assay: Biocidal efficacy (MBC, complete kill) of THPS, NaOPP and THPS/NaOPP against SRB; assay type: cell-based, Sulfate Reducing Bacteria (SRB); conditions: alone or in THPS/NaOPP blend, 40° C., 24 hours, 10^6 to 10^7 CFU/mL
Method: Inside an anaerobic chamber (Bactron anaerobic chamber), a deaerated sterile salt solution (3.1183 g of NaCl, 1.3082 mg of NaHCO3, 47.70 mg of KCl, 72.00 mg of CaCl2, 54.49 mg of MgSO4, 172.28 mg of Na2SO4, 43.92 mg of Na2CO3 in 1 L water) was contaminated with an oil field isolated SRB consortium, at final bacterial concentrations of 10^6 to 10^7 CFU/mL. The aliquots of this contaminated water were then treated with THPS, NaOPP, or the THPS/NaOPP combinations at different active concentration levels. After the mixtures were incubated at 40° C. for 24 hours, the viable bacteria in the aliquots were detected in culture medium. The biocidal efficacy was determined by minimum tested biocide concentration for a complete bacterial kill in the aliquots (MBC). Table 4 summarizes the efficacy of each biocide and their blends, and the Synergy Index of each combination.

[4] = tested on: oilfield SRB consortium; assay: Biocidal efficacy of THPS/HHT against anaerobic bacteria in a high temperature and sulfide-rich environment; assay type: cell-based, Sulfate Reducing Bacteria (SRB); conditions: alone or in THPS/HHT blend, 80° C., 7 days, daily challenge of SRB and 10 ppm sulfide
Method: Inside an anaerobic chamber (BACTRON IV), biocides solutions were challenged with 10^4 to 10^5 CFU/mL of an oilfield SRB consortium and 10 ppm sulfide ion (added in the form of sodium sulfide). The biocide solutions were then incubated at 80° C. under anaerobic condition for 7 days, with daily challenge of the SRB consortium (10^4 to 10^5 CFU/mL) and sulfide ion (10 ppm). The biocidal efficacy was determined by selecting the lowest testing biocide dosage required for 99.999% or complete bacterial kill after both 2 hours and 7 days of heat, SRB and sulfide exposure. Synergy Index was then calculated. Table 2 summarizes the efficacy of each biocide and their blend, and the Synergy Index of each combination.
(§1) A Synergy Index less than 1 indicates synergy.

[5] = tested on: oil field isolated anaerobic consortium, mainly SRB; assay: Biocidal efficacy (MBC, complete kill) of THPS, HHT and THPS/HHT against SRB, 40° C., 24 hour; assay type: cell-based, Sulfate Reducing Bacteria (SRB); conditions: alone or in THPS/HHT blend, 10^6 to 10^7 CFU/mL
Method: Inside an anaerobic chamber (Bactron anaerobic chamber), a deaerated sterile salt solution (3.1183 g of NaCl, 1.3082 mg of NaHCO3, 47.70 mg of KCl, 72.00 mg of CaCl2, 54.49 mg of MgSO4, 172.28 mg of Na2SO4, 43.92 mg of Na2CO3 in 1 L water) was contaminated with an oil field isolated anaerobic consortium, mainly SRB, at final bacterial concentrations of 10^6 to 10^7 CFU/mL. The aliquots of this contaminated water were then treated with THPS and hexahydro-1,3,5-tris(2-hydroxyethyl)-s-triazine (HHT), or the THPS/HHT combination at different active concentration levels. […] Table 1 summarizes the efficacy of each biocide and their blend, and the Synergy Index*^1 of each combination. *^1Synergy Index=Ca/CA+Cb/CB
• Ca: Concentration of biocide A required to achieve a complete bacterial kill when used in combination with Biocide B • CA: Concentration of biocide A required to achieve a complete bacterial kill when used alone • Cb: Concentration of biocide B required to achieve a complete bacterial kill when used in combination with Biocide A • CB: Concentration of biocide B required to achieve a complete bacterial kill when used alone A Synergy Index less than 1 indicates synergy.

[6] = tested on: oil field isolated anaerobic SRB consortium; assay: Biocidal efficacy of THPS, DXN and THPS/DXN against SRB (99.99% reduction in 24 hours); assay type: cell-based, Sulfate Reducing Bacteria (SRB); conditions: alone or in THPS/DXN blend, 40° C., 10^6 to 10^7 CFU/mL
Method: Inside an anaerobic chamber (Bactron III), a deaerated sterile salt solution (3.1183 g of NaCl, 1.3082 mg of NaHCO3, 47.70 mg of KCl, 72.00 mg of CaCl2, 54.49 mg of MgSO4, 172.28 mg of Na2SO4, 43.92 mg of Na2CO3 in 1 L water) was contaminated with an oil field isolated anaerobic SRB consortium at final bacterial concentrations of 10^6 to 10^7 CFU/mL. The aliquots of this contaminated water were then treated with THPS, DXN, or the THPS/DXN combinations at different active concentration levels. After the mixtures were incubated at 40° C. for 24 hour, the viable bacterial number were enumerated using a serial dilution method and the biocidal efficacy was determined by the biocide dosage required for 99.99% bacterial reduction in 24 hours. Synergy Index was then calculated. Table 3 summarizes the efficacy of each biocide and their blends, and the Synergy Index of each combination.
as §1

[Na+].[O-]c1ccccc1-c1ccccc1 [NaOPP, sodium o-phenylphenylate]
Concentration required for 99.999% bacterial reduction, NaOPP ([1]; NaOPP): 303.8 ppm active
Concentration required for 99.999% bacterial reduction, NaOPP ([2]; NaOPP): 202.5 ppm active
Average MBC NaOPP ([3]; NaOPP concentration for complete bacterial kill): 333.3 active ppm

OCCN1CN(CCO)CN(CCO)C1 [HHT, hexahydro-1,3,5-tris(2-hydroxyethyl)-s-triazine]
Dosage required for 99.999% or complete bacterial kill of both 2 h and 7 day heat, SRB, and sulfide exposure, HHT ([4]; HHT): 133.3 active ppm
Average MBC HHT ([5]; HHT concentration for complete bacteria kill): 79.0 active ppm

CC(=O)OC1CC(C)OC(C)O1 (stereo not drawn) [DXN, 2,6-dimethyl-1,3-dioxan-4-yl acetate]
Dosage required for 99.99% bacterial reduction, DXN ([6]; DXN): 330.9 active ppm

tetrakis(hydroxymethyl)phosphonium sulfate [THPS]
Dosage required for 99.999% or complete bacterial kill of both 2 h and 7 day heat, SRB, and sulfide exposure, THPS ([4]; THPS): 88.9 active ppm
Dosage required for 99.99% bacterial reduction, THPS ([6]; THPS): 5.5 active ppm
Concentration required for 99.999% bacterial reduction, THPS ([1]; THPS): 11.9 ppm active
Concentration required for 99.999% bacterial reduction, THPS ([2]; THPS): 26.7 ppm active
Average MBC THPS ([3]; THPS concentration for complete bacterial kill): 7.9 active ppm
Average MBC THPS ([5]; THPS concentration for complete bacteria kill): 6.1 active ppm
